Laboratory results from patent US9834525B2, “Inhibitors of paxillin function and related compositions and methods” (UNIVERSITY OF TENNESSEE RESEARCH FOUNDATION, priority 2015, dated 2017).
“Also recorded” adds a separate entry of the source.

How the values were obtained:
[1] = test system: retinal endothelial cells (REC); test: VEGF-induced REC proliferation, WST-1 metabolic assay; format: cell-based, human
Method: To investigate the potential of compound (II-4) affecting the proliferative capacity of RECs treated with VEGF, proliferation was measured using the metabolic assay based on the tetrazolium salt, WST-1. […] To rule out the possibility that this observation was related to cytotoxicity, RECs were incubated with a high concentration of compound (II-4) (1 μM) for 24 hours. Cells were harvested and apoptosis measured with Annexin-V/Propidium Iodide (PI) staining and analyzed using flow cytometry.
FIG. 18: REC Proliferation and Flow cytometry analysis of apoptosis in REC. A) VEGF-induced cellular proliferation was assessed using the WST-1 metabolic assay. […] (*P<0.0001). Nuclei were stained with DRAQ5 and imaged to show trend of decreasing proliferation. B) Apoptosis was measured using Annexin V/PI staining Compound (II-4) (1 μM) appears to be non-cytotoxic to retinal endothelial cells after 24 hour incubation (n≈10,000 cells).
FIG. 21: REC Proliferation. […] (*, # P<0.001; Mean±SD, N=8/group).

UM tumor cells = test: Phalloidin (F-actin) analysis by flow cytometry in UM cells; format: cell-based, human; conditions: treatment for 24 hrs
Method: Retinal endothelial cells (REC) and UM-OMM 2.5 cells were harvested, washed and counted. 1.0×10^6 cells were fixed for 1 hr at 4° C. and permeabilized with the Intracellular Fixation and Permeabilization Buffer Kit (eBiosciences, San Diego, Calif.). Cells were washed followed by Alexa-Fluor 647 Phalloidin (MOLECULAR PROBES, Life Technologies, Carlsbad, Calif.) labeling using 1 U/μL. Cells were washed and analyzed using BD LSR II followed by analysis using FlowJo xV10.0.6 software.
Next, it was investigated if reduced numbers were a consequence of a reduction in UM cells proliferation. Cell cultures in the presence or absence of compound (II-4) were analyzed by follow cytometry for cytoskeletal fragmentation and proliferation. Uncontrolled cytoskeletal remodeling and cell proliferation are considered hallmarks of tumor growth and metastasis. […]
FIG. 15: The paxillin inhibitor Compound (II-4) selectively affects cellular proliferation of primary UM cells that become metastatic. […] Unlabeled cells were used to control fluorescence. […] B. Quantitation of experiment +/−SD including primary UM that becomes metastatic (Mel 270), metastatic (OMM 2.1) and primary (92.1) UM cells. *P=0.0007 and **P=0.0005. […] Quantitation of VLA-4 protein levels +/−SD from n=3. […]

[2] = Microsomal stability, pooled rat liver microsomes; format: in vitro ADME; conditions: 1 μM, 37° C., 60 min
Method: (§1) Microsomal stability of compound (II-4) (1 μM) was assessed in pooled liver microsomes (human, mouse, and rat) (FIG. 7). Briefly, compound (II-4) was incubated in duplicate with microsomes at 37° C. Reactions contained microsomal protein in 100 mM potassium phosphate, 2 mM NADPH, 3 mM MgCl2, pH 7.4. NADPH was omitted to detect NADPH-free degradation. At 60 minutes, the reaction was stopped by adding ice-cold methanol containing internal standard. Samples were centrifuged to remove precipitated protein, and the supernatants were analyzed by LC/MS/MS to quantitate the remaining parent.
as §1, with “23).” for “7).”, “min,” for “minutes,”, “(+” for “containing”, “standard).” for “standard.”

microsomal stability (metabolism by cytochrome P-450 enzymes) [2]: rapidly metabolized
SMILES: COc1cc(C2OC(=O)Nc3c2ccc2ccccc32)cc(OC)c1OC (stereo not shown) [compound II-4]
VEGF-induced REC proliferation (FIG. 21) ([1]; Compound (II-4) (500 nM), LY294002 (1004), SU6656 (104), U0126 (104) [sic]): inhibited | VEGF-induced cellular proliferation (WST-1) ([1]; increasing concentrations of compound (II-4)): significant decrease; also recorded: significantly reduces cellular proliferation | actin remodeling (intracellular phalloidin, F-actin) (UM tumor cells): no difference in actin remodeling
